Substitutions are numbered along the chain they refer to. Where two headings read alike, the source gives them in different places.

The values that follow come from patent US5773423A (priority 1994, dated 1998).

The target in experiment [1] is T1, adenosine uptake sites in rat brain membranes (Rattus norvegicus, UniProt O54698).
T1 sequence (O54698 1-457): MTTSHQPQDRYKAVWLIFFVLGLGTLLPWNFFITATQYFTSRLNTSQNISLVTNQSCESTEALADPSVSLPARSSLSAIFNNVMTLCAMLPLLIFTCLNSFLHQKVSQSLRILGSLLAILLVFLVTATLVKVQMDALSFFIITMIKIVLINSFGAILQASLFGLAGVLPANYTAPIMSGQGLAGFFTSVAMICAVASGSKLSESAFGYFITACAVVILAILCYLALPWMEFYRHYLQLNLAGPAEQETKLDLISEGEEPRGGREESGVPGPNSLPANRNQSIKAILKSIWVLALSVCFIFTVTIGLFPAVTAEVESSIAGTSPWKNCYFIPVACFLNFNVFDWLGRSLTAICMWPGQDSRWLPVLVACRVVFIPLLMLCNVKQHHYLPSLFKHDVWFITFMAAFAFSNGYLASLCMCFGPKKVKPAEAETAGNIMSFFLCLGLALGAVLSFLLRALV
In words: Competition for [3H]NBTI binding at adenosine uptake sites in rat striatal membranes. The note with it: for Ki: read-out: Ki (NBTI), 0.3 nM [3H]NBTI, 30 min at 23° C., pH 7.4.

Experiment [2] deals with locomotor activity in mice. As to conditions: CSC 1 mg/kg, shown earlier; cited from earlier work.
The test system of experiment [3] is locomotor activity in mice. In words: Locomotor activity in mice (open field, Digiscan activity monitor). It is filed as in vivo, mouse (NIH Swiss). The note with it: CSC 1 mg/kg.
Experiment [4] has as its target T2, A1 and A3 adenosine receptors in mouse brain membranes (Mus musculus, UniProt Q60612).
T2 sequence (Q60612 1-326): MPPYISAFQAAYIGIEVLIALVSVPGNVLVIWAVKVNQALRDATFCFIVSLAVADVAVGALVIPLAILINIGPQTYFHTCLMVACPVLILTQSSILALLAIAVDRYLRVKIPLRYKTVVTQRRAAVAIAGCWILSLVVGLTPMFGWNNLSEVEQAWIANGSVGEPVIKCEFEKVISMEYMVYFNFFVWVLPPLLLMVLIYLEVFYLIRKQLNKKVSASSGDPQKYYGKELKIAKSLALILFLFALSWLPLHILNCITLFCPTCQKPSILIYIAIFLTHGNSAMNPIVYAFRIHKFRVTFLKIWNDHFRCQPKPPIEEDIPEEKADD

Experiment [5] has as its target T3, A1 receptors from rat brain membranes (Rattus norvegicus, UniProt P25099).
T3 construct: Rat cerebral cortical and striatal membranes were prepared; from tissue; host or cells: rat brain (cerebral cortical) membranes
T3 sequence (P25099 1-326): T2 sequence (Q60612 1-326) with E151V, A155D, I157R, E316D, I319L, D325E
In words: biochemical. It is filed as binding.

In experiment [6] the target is T4, A2 receptors from rat striatal membranes (Rattus norvegicus, UniProt P30543).
T4 construct: Rat cerebral cortical and striatal membranes were prepared; from tissue; host or cells: rat striatal membranes
T4 sequence (P30543 whole entry): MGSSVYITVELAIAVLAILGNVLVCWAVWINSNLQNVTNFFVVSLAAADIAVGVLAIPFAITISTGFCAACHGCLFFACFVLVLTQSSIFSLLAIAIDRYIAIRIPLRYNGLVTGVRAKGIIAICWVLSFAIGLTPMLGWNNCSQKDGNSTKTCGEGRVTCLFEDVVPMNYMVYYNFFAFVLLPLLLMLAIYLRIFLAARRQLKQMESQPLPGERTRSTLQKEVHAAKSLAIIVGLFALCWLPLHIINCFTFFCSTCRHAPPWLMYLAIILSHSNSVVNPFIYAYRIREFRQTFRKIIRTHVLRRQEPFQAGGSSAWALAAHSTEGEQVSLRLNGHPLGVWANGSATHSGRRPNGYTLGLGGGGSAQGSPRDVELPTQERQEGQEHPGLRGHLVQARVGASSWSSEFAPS
Briefly: Radioligand binding at A2 (A2a) receptors, displacement of [3H]CGS 21680 (or [3H]NECA with 50 nM CPA) from rat striatal membranes.

Another experiment deals with T5, rat A3 receptors (Rattus norvegicus, UniProt P28647).
T5 construct: expressed in transfected cells; host or cells: CHO cells, transfected (the IC50); RBL-2H3 rat mast cells (endogenous) also named
T5 sequence (P28647 1-320): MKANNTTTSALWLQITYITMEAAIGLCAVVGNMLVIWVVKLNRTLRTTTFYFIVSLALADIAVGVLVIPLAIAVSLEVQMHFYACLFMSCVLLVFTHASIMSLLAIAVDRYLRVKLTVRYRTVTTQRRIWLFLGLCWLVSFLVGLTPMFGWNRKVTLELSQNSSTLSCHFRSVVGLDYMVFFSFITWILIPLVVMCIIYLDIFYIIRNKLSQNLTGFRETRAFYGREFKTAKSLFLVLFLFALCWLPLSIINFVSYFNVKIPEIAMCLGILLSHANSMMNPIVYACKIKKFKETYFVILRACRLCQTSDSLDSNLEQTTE
In words: Irreversible inhibition of radioligand binding at rat A3 receptors after preincubation.

Experiment [7] deals with T6, A3 adenosine receptors in rat brain membranes (Rattus norvegicus, UniProt P28647).
T6 sequence (P28647 1-320): T5 sequence (P28647 1-320)

Experiment [8] addresses T7, A3 adenosine receptors in mouse brain membranes (Mus musculus, UniProt Q61618).
T7 construct: in mouse brain membranes; from tissue; host or cells: NIH Swiss mouse brain region membranes (cerebellum for the Kd/Bmax)
T7 sequence (Q61618 1-319): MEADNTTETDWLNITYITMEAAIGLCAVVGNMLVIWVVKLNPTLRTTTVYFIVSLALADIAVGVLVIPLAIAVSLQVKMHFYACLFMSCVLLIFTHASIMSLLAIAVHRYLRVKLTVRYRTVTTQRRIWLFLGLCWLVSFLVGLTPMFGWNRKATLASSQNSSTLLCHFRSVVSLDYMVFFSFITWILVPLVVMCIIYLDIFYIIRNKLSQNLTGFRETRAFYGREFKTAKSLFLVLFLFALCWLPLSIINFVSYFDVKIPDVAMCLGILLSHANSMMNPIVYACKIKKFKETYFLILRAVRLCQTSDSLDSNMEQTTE
In words: [125I]AB-MECA saturation binding to A3 receptors in mouse brain membranes in the presence of 100 nM CPX.

In experiment [9] the target is T4, A2 receptors from rat striatal membranes. As to conditions: Table 2, footnotes d/e: literature; read-out: Ki (A2); cited from earlier work.
In experiment [10] the test system is A1 and A3 adenosine receptors in mouse brain membranes.

Broadly, the Ki is the equilibrium dissociation constant of an inhibitor or competing ligand from its target. Regarding `OC[C@H]1O[C@@H](n2cnc3c(NCc4ccccc4)ncnc32)[C@H](O)[C@@H]1O` [Compound 7, N^6 -benzyladenosine, reference compound], in [1], the inhibition constant Ki was determined as 203 ± 93 nM.

Regarding `Cn1c(=O)c2c(nc(C=Cc3cccc(Cl)c3)n2C)n(C)c1=O` [Compound 134, 8-(3-chlorostyryl)caffeine], the “reversal of APEC-elicited behavioral depression (in words)” value in [2] is given as “complete reversal”. Further, the “reversal of 3-IB-MECA-mediated locomotor depression (in words)” value in experiment [3] is on record as “small, statistically insignificant reversal”. Besides, the “displacement of specific [125I]AB-MECA binding (in words)” value in experiment [4] was “failed to displace specific binding of [^125 I]AB-MECA”.

Regarding `CNC(=O)[C@H]1O[C@@H](n2cnc3c(NCc4cccc(I)c4)nc(Cl)nc32)[C@H](O)[C@@H]1O` [Example 44, 2-chloro-N^6-(3-iodobenzyl)-9-[5-(methylamido)-β-D-ribofuranosyl]-adenine], the inhibition constant (Ki) in [1] worked out at 15200 nM.

Regarding `CNC(=O)[C@H]1O[C@@H](n2cnc3c(NCc4cccc(I)c4)nc(SC)nc32)[C@H](O)[C@@H]1O` [Example 46, N^6-(3-iodobenzyl)-2-methylthio-9-[5-(methylamido)-β-D-ribofuranosyl]-adenine], the Ki was found to be 49500 nM in experiment [1]; 2140 ± 100 nM in experiment [5] (Table 2, [3H]PIA, rat brain membranes, read-out: Ki (A1)); 3210 ± 1360 nM in experiment [6] (Table 2, [3H]CGS 21680, rat striatal membranes, read-out: Ki (A2)). In addition, the “Ratio of Ki (NBTI)/Ki ([125I]AB-MECA)” value in [1] (selectivity for cloned rat A3 receptors vs adenosine uptake site) was 22,000.

The term IC50 denotes the concentration that gives 50% inhibition. `CNC(=O)[C@H]1O[C@@H](n2cnc3c(NCc4cccc(N=C=S)c4)ncnc32)[C@H](O)[C@@H]1O` [N^6-(3-isothiocyanatobenzyl)adenosine-5'-N-methyluronamide]: in experiment [5], the affinity, expressed as Ki, was 145 nM and the “irreversible inhibition at rat A1 receptors (in words)” value is recorded as “not at rat A1 or A2a receptors”. Besides, at rat A3 receptors, the IC50 came to 50 nM and the “Kd of remaining A3 receptor sites (in words)” value is listed as “No change was observed in the Kd value”. For the same compound, the “irreversible inhibition of A3 binding (in words)” value on rat A3 receptors (CHO cells or RBL-2H3 mast cells) is on record as “irreversible inhibition of radioligand binding at rat A3 receptors”. In [6], the Ki came to 272 nM and the “irreversible inhibition at rat A2a receptors (in words)” value is “not at rat A1 or A2a receptors”.

What is called Kd is the constant that tells how readily two partners part at equilibrium. On to `CNC(=O)[C@H]1O[C@@H](n2cnc3c(NCc4ccc(N)c([125I])c4)ncnc32)[C@H](O)[C@@H]1O` [[^125 I]AB-MECA, [^125 I]4-amino-3-iodobenzyladenosine-5'-N-methyluronamide], for which the “Bmax in rat brain membranes” value in experiment [7] is 43 fmol/mg protein. Also, in experiment [8] (0.4 nM [125I]AB-MECA), the “A3 share of total specific binding, cerebellum and striatum” value is 18 % of total specific binding; the “A3 share of total specific binding, hippocampus and cortex” value is 7-9 % of total specific binding. Further, the Kd in experiment [8] (mouse cerebellar membranes) is 1.39 nM. Further, the Ki in experiment [9] is 197 nM. Moreover, in experiment [10], the “specific binding of total binding” value is reported as “ca. 70 % of total binding”. For the same compound, the nonspecific binding entry in experiment [10] (in the presence of 40 μM R-PIA) is “approximately 30 % of the total binding”. Besides, the Bmax cerebellum in experiment [4] (cerebellum) is 120±5 fmol specifically bound/mg protein. Moreover, the Bmax cortex in experiment [4] (cortex) is on record as 159±15 fmol specifically bound/mg protein. Moreover, the Bmax hippocampus in experiment [4] (hippocampus) is 215±17 fmol specifically bound/mg protein. In addition, the “Kd values (Scatchard analysis)” value in [4] (regions of mouse brain) is on record as 1.9 to 2.8 nM. The Bmax striatum in experiment [4] (striatum) is on record as 123±23 fmol specifically bound/mg protein.
